Like-named read-outs stand apart in the source and are kept apart here.
Assays:
[1] = test system: SUDHL-4 cells (BTG1 KO, BTG1 WT); conditions: SUDHL-4 BTG1 KO versus BTG1 WT; 72 h exposure; 0 or 50 nM; FIG. 3C
Procedure: (§1) TMD8 and SUDHL-4 were grown in Roswell Park Memorial Institute medium, GlutaMAX Supplement ([…], Thermofisher), supplemented with 10% FBS, 1% penicillin G/streptomycin. Cells were grown in incubators at 37 C, in a 5% CO2 atmosphere.
(§2) TMD8 and SUDHL-4 cells expressing cas9 were generated by transduction with lentiV-Cas9-blast virus (Addgene #125592, Massachusetts, USA), and selected with 2.5 μg/ml blasticidin for 7 days. […] Cells were selected with puromycin for 7 days, and GFP expression was evaluated with flow cytometry. BTG1 inactivation was validated by Western Blotting after 1 week. BTG1 rescue cell were derived from TMD8 BTG1 KO cells infected with murine BTG1 cDNA (100% protein homology with human) in a mcherry-HIV-based virus. GFP and mcherry positive cells were sorted on a FACS ARIA™ cell sorter (BD biosciences, San Jose, CA).
(§3) The high affinity MCL-1 specific inhibitor S63845 (Kotschy et al., 2016) was purchased from Selleck Chemical (München, Germany). For in vitro study, it was dissolved in DMSO at a concentration of lmmol/L. DMSO was also used as a vehicle control in the in vitro study. For cell viability assessment, 100 000 cells were seeded in 24 well plate and incubated for 72 h with either S63845 or DMSO. Culture medium was used for further dilutions (typically 5 and 50 nM). For cell viability assessment, cells were stained with Annexin V-APC and propidium iodide, analyzed on a FACS LSRII™ (BD biosciences, San Jose, CA).

[2] = test system: TMD8 cells (BTG1 KO, WT, rescue, mutated rescues); conditions: 72 h exposure, 0 or 50 nM, FIG. 3B
Procedure: as §1, §2, §3

For `Cc1c(-c2c(-c3ccc(F)o3)sc3ncnc(O[C@H](Cc4ccccc4OCc4ccnn4CC(F)(F)F)C(=O)O)c23)ccc(OCCN2CCN(C)CC2)c1Cl` [S63845], the “Proportion of apoptotic cells (Annexin V staining)” value [1] was “confirmed the link between BTG1 inactivation and sensitivity to MCL-1”, the “Increased sensitivity to MCL-1 inhibitor (proportion of apoptotic cells, Annexin V staining)” value ([2]; TMD8 BTG1 KO rescued with BTG1 WT) was “abolished by the expression of BTG1 WT” and the “Increased sensitivity to MCL-1 inhibitor (proportion of apoptotic cells, Annexin V staining)” value ([2]; TMD8 BTG1 KO rescued with mutated BTG1 (L26P, G66D or I115V)) was “not by the expression of mutated BTG1”. For the same molecule, the “Proportion of apoptotic cells (Annexin V staining)” value ([2]; TMD8 BTG1 KO versus BTG1 WT) was “induces significantly more apoptosis”.

Source: patent publication US20240401146A1, “METHODS FOR PREDICTING AND IMPROVING THE EFFICACY OF MCL-1 INHIBITOR THERAPY” (INSTITUT NATIONAL DE LA SANTÉ ET DE LA RECHERCHE MÉDICALE, priority 2021, published 2024)
